Experimental data taken from PubChem BioAssay (NCI).
Values joined by “and” are separate entries in the source; they are usually repeats but may differ in a detail not shown here. Identical values can stand only once.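 Where inhibition never reached the appropriate level, the endpoint shown equals the highest concentration tested. Otherwise, values were interpolated linearly from a five-concentration, 48-hour dose response in 96-well plates. GI50 = concentration required for 50% inhibition of growth. TGI marks complete inhibition of growth.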

Tests used:
Assay in all cases: NCI anticancer screen, dose series, 48 h
CCRF-CEM leukemia = tested on: CCRF-CEM leukemia
SK-MEL-2 melanoma = tested on: SK-MEL-2 melanoma
OVCAR-5 ovarian = tested on: OVCAR-5 ovarian
ACHN renal = tested on: ACHN renal
TK-10 renal = tested on: TK-10 renal
RPMI-8226 leukemia = tested on: RPMI-8226 leukemia
M14 melanoma = tested on: M14 melanoma
OVCAR-3 ovarian = tested on: OVCAR-3 ovarian
MDA-MB-435 = tested on: MDA-MB-435
HCT-15 colon = tested on: HCT-15 colon

Structure (SMILES)	GI50 (CCRF-CEM leukemia)	TGI (CCRF-CEM leukemia)	GI50 (SK-MEL-2 melanoma) [µM]	TGI (SK-MEL-2 melanoma)	GI50 (OVCAR-5 ovarian) [µM]	TGI (OVCAR-5 ovarian)	GI50 (ACHN renal) [µM]	TGI (ACHN renal) [µM]	GI50 (TK-10 renal) [µM]	TGI (TK-10 renal) [µM]	GI50 (RPMI-8226 leukemia) [nM]	TGI (RPMI-8226 leukemia)	GI50 (M14 melanoma) [nM]	TGI (M14 melanoma) [µM]	GI50 (OVCAR-3 ovarian) [µM]	TGI (OVCAR-3 ovarian)	GI50 (MDA-MB-435) [nM]	TGI (MDA-MB-435)	GI50 (HCT-15 colon) [µM]	TGI (HCT-15 colon)
Cc1c(-c2ccnc(N)n2)c2c(n1-c1ccccc1)C(=O)c1ccccc1C2=O	> 100 µM	> 100 µM	22.9	57.2 µM	23.4	97.5 µM	19.6	77.7	20.2	63.3	> 100000	> 100 µM	46800	> 100	12.3	30.6 µM	25200	67.3 µM	16	> 100 µM
CCCCOc1nc2ccccc2cc1C1CNC(=O)c2ccccc2N1 (centres undefined)	2.93 µM	18.8 µM	4.06	29.6 µM	5.4	31.4 µM	4.31	17.8	5.92	22.1	2810	16 µM	1530	9.03	1.56	3.86 µM	546	1.82 µM	2.3	11.3 µM
CC(=O)O[C@H]1Cc2c([nH]c3ccccc23)[C@@H](c2ccc(Cl)cc2)N1C(=O)CCNC(C)(C)C	5.12 µM	14.8 µM	4.93	9.88 µM	4.24	8.54 µM	4.13	8.29	5.75	10.5	2830	13.6 µM	2050	6.96	3.98	8.59 µM	4680	9.06 µM	4.05	8.32 µM
CCCCCCCC(=O)O[C@H]1[C@H]2[C@@H](CC1(C)C)C(=O)[C@]13O[C@H]1C(=O)[C@]1(CO1)[C@]23C	0.593 µM	3.57 µM and 1.58 µM	22.7	45.5 µM and 8.57 µM	15.3	28.8 µM and 25.9 µM	–	4.09	–	6.47	2950	18.3 µM and 3.34 µM	–	11.3	2.37	4.55 µM and 6.02 µM	–	75 µM	–	8.26 µM and 7.9 µM
Nc1ccc(Sc2ccc3c4c2cccc4c(=O)n2c4ccccc4nc32)cc1	2.35 µM	> 100 µM	8.87	65.6 µM	14.9	46 µM	2.37	10.2	–	–	2500	14.3 µM	4510	27.9	6.4	24.4 µM	12600	82.2 µM	3.34	40 µM
S=C1NC2=C(CCOc3c2ccc2ccccc32)C(c2ccc(Cl)cc2)N1 (centres undefined)	30.6 µM	> 100 µM	80.9	> 100 µM	73.9	> 100 µM	36.4	> 100	35.4	> 100	25000	> 100 µM	54300	> 100	20.9	70.6 µM	41500	> 100 µM	14.3	86 µM
Clc1ccc2c(NCCNc3nc(Cl)nc4ccccc34)ccnc2c1	0.331 µM	1.04 µM	1.87	3.52 µM	1.62	3.09 µM	1.61	3	1.95	3.46	279	0.769 µM	1840	3.51	1.29	2.68 µM	1470	2.95 µM	1.14	2.55 µM
COc1ccc(C(=O)C(CN(C)C)c2ccccc2)cc1 (centres undefined)	1.84 µM	11.9 µM	3.09	7.97 µM	3.82	10 µM	2.11	4.95	3.01	7.85	1880	> 100 µM	1680	3.33	1.42	2.89 µM	2830	11.4 µM	1.81	4.73 µM
N#CSc1cc(-c2nc3ccccc3o2)ccc1N	10.6 µM	30.2 µM	40.7	> 74.3 µM	25.2	76.6 µM	19.2	58.5	19.2	52.3	15900	53 µM	26200	80.4	17.9	> 56.7 µM	24000	64.1 µM	23.2	> 100 µM
COc1cc2cc(C(=O)N3C[C@H](CCl)c4c3cc(O)c3ccccc43)[nH]c2c(OC)c1OC	< 0.01 µM	0.048 µM	–	0.461 µM	0.0237	2.15 µM and 13.7 µM	–	0.581	0.0571	> 100	< 10	–	26.8	–	0.0474	14.4 µM	20.1	0.634 µM and 0.0912 µM	0.022	–
c1ccc2c(Nc3ccc4c(c3)OCO4)c3ccoc3nc2c1	15.2 µM	> 100 µM	26.4	> 100 µM	25.9	60.9 µM	20.2	70.3	19.4	42.9	3260	25.6 µM	14300	29.8	15.5	36.6 µM	3970	14.4 µM	14.7	45.6 µM
CCN(CC)c1ccc(/C=C2/NC(=O)NC2=O)cc1	9.66 µM	> 100 µM	3.03	> 31.4 µM	10.5	> 100 µM	26.5	> 100	9.56	> 100	5340	> 100 µM	3300	38.9	2.41	7.18 µM	420	3.53 µM	3.21	> 100 µM
Cn1cc(C2=C(c3cn(C)c4cc(Cl)ccc34)C(=O)NC2=O)c2ccccc21	0.093 µM	> 25 µM	0.212	> 25 µM	0.157	> 25 µM	0.181	> 25	3.81	> 25	93.9	> 15.2 µM	87.9	> 25	0.0653	0.154 µM	47.5	0.12 µM	0.103	> 25 µM
c1ccc(-c2nn(-c3ccccc3)[n+](-c3ccccc3-c3ccccc3)n2)cc1	0.743 µM	43.7 µM	1.8	7.69 µM	4.19	> 100 µM	5.38	> 100	4.35	21.5	251	5.84 µM	1630	16.6	0.416	15.5 µM	461	2.82 µM	21.5	> 100 µM
CCn1c(-c2nonc2N)nc2c(C#CC(C)(C)O)ncc(OCC3CCNCC3)c21	4.5 µM	> 25 µM	11.7	> 25 µM	> 25	> 25 µM	8.13	> 25	8.28	> 25	> 25000	> 25 µM	13400	> 25	7.07	> 23.6 µM	13700	> 25 µM	16.5	> 25 µM
COC(=O)[C@@H](C)C[C@H](Cc1ccccc1)NC(=O)c1csc([C@@H](C[C@H](C(C)C)N(C)C(=O)[C@@H](NC(=O)CN(C)C)C2CC2)OC(C)=O)n1	0.0154 µM	> 3.28 µM	0.00701	0.149 µM	0.838	> 16.5 µM	0.0938	> 16.5	0.659	> 16.5	5.76	> 7.96 µM	18.5	–	0.00309	–	1.92	< 0.0153 µM	0.135	> 16.5 µM
O=C(O)c1ccccc1/C=C1/Nc2ccccc2C1=O	–	> 100 µM	–	> 100 µM	–	> 100 µM	–	> 100	–	> 100	–	> 100 µM	–	> 100	–	> 100 µM	–	> 100 µM	–	> 100 µM
O=C(CN1CCN(c2cc3c(cc2F)c(=O)c(C(=O)O)cn3C2CC2)CC1)Nc1ccc(C(=O)/C=C/c2ccccc2)cc1	4.09 µM	> 100 µM	2.94	11.3 µM	5.35	> 100 µM	3.3	31.9	4.19	> 100	2520	6.73 µM	5220	> 100	3.65	> 100 µM	2940	> 100 µM	3.68	> 100 µM
CCOC(=O)Nc1ccc2nc(Sc3ccc(Cl)cc3)sc2c1	4 µM	> 100 µM	2.56	26.4 µM	21.6	> 100 µM	11.5	> 90.4	9.1	58.4	3510	54.8 µM	1660	24.6	1.89	> 32.6 µM	222	0.561 µM	0.632	> 87.3 µM
O=C(Nc1ccc(Oc2cccc(Cl)c2)c(Cl)c1)c1cccnc1	1.89 µM	> 50 µM	2.11	20 µM	5.5	> 50 µM	4.06	> 50	3.16	40.1	2000	> 50 µM	1380	29	1.22	4.28 µM	155	0.723 µM	0.343	> 50 µM
Nc1cc2ccncc2c2ccccc12	12.6 µM	99.1 µM	13.6	30 µM	18.7	88.1 µM	4.44	58.5	20.2	91.1	11600	63.5 µM	14500	32.1	18.8	76.5 µM	17200	60 µM	11.8	> 100 µM
NS(=O)(=O)c1ccc(N=Nc2cc3ccccc3c(C(=O)O)c2O)cc1	–	> 100 µM	–	> 67.1 µM	–	> 94.5 µM	–	52.5	–	> 80.6	–	> 100 µM	–	> 100	–	> 87.6 µM	–	> 100 µM	–	> 100 µM
COC(=O)CCCCCCCCC(=O)c1c(C)[nH]c(/C=C2\N=C(c3ccc[nH]3)C=C2OC)c1C	2.3 µM	> 100 µM	8.85	> 29.1 µM	> 28.7	> 100 µM	20.6	> 72.7	> 100	> 100	6380	> 30.6 µM	2640	> 21.3	> 48.1	> 86.3 µM	3920	> 100 µM	22.1	> 57.7 µM
CCOC(=O)CCC(NC(=O)c1ccc(Nc2nc3cc(N)cc(N)c3nc2-c2ccccc2)cc1)C(=O)OCC (centres undefined)	5.15 µM	> 100 µM	16.5	> 86 µM	57.1	> 93.2 µM	> 35.9	> 68.6	> 57.4	> 87.3	6430	> 59.3 µM	11900	> 24.4	13.4	39.4 µM	29900	> 60.4 µM	> 48.1	> 100 µM
CN(C)CC1CCCCCCCCCCC1=O (centres undefined)	> 10 µM and 99.4 µM	> 100 µM	> 100	> 100 µM	> 100	> 100 µM	> 100	> 100	> 100	> 100	–	> 100 µM	> 100000	> 100	> 100	> 100 µM	> 100000	> 100 µM	> 100	> 100 µM
CC1CCCc2c(CC3CC(=O)NC(=O)C3)nc(N)nc21 (centres undefined)	–	> 100 µM	–	> 100 µM	–	> 100 µM	–	–	–	> 100	–	> 100 µM	–	> 100	–	> 100 µM	–	> 100 µM	–	> 100 µM
